From patent US10941379B2, “Microbial system for biosynthesis of natural and engineered products coupled to in situ extraction in supercritical CO2” (Massachusetts Institute of Technology, priority 2016, dated 2021)

Assays:
Assay type in all cases: cell-based, Bacillus megaterium
B. megaterium SR7 [1] = assay: M9 supplemented growth under 1 atm CO2 (OD600); conditions: amendment to M9 base medium, 1 atm CO2, scored by OD600
Text: Development of a minimal medium enables individual chemical components to be tuned in order to establish optimized growth from a sole carbon source under 1 atm CO2. Initial attempts to generate B. megaterium SR7 growth in triplicate cultures tested various amendments to M9 base medium (thelabrat.com; Table 1), including 0.4% glucose or 0.4% xylose amendments as sole carbon sources, with or without trace metals solution (Boone et al., 1989). The 1× concentration trace metals solution consisted of (in g/l): 0.005 Na2(EDTA), 0.0002 NiSO4.6H2O, 0.0005 CoCl2.6H2O, 0.0001H2FeO3, 0.001 FeSO4.7H2O, 0.0001H3BO3, 0.001 ZnCl2, 0.0001 NaMoO4.2H2O, 0.0004 AlCl3.6H2O, 0.001 MnCl2.4H2O, 0.0003 Na2NO4.2H2O, 0.0002 CaCl2. To further boost growth, triplicate cultures of M9+0.4% glucose were amended with dilute LB (0.001-0.01×) or yeast extract (YE; 0.001-0.01×) as de facto vitamin and co-factor solutions, and/or NaNO3 (5 mM) as an alternative electron acceptor. All M9 incubations were scored for growth by OD600 and designated as robust above OD600>0.600, low level between 0.2-0.6, and no growth below 0.2. Passaged vegetative cultures were also assayed in duplicate for growth (by OD600) amended with a range (0.1×, 0.25×, 1×) of trace metals solutions in M9+0.4% glucose+0.01×YE media, including in the presence and absence of 5 mM NaNO3.

B. megaterium SR7 spores [2] = assay: Spore germination induction in PBS under 1 atm CO2 (fluorescence microscopy, bulk fluorescence); conditions: 100 mM, 8.5 hour endpoint (maximum)
Method: The role of candidate germination inducers was subsequently investigated in PBS buffer rather than growth medium to decouple the germination process from outgrowth. B. megaterium SR7 spores were loaded in triplicate 10 ml PBS amended with 100-250 mM L-alanine, 100 mM L-alanine with heat treatment, 25 mM L-leucine, or an unamended PBS control. The extent of germination was measured by fluorescence microscopy staining patterns (e.g., the degree of cell membrane penetration by DNA stain), bulk fluorescence, OD600, and flow cytometry (FCM). A total of 100-300 cells per filter were counted and categorized as either “dormant” or “germinated” if the spore stain was localized to the cell membrane or diffused within the interior of the cell, respectively (Cronin and Wilkinson, 2007). Cells displaying an intermediate degree of stain dispersal (“activated”) were categorized as germinated (FIG. 1).
Sub-sample bulk fluorescence (Syto9®) was measured by microplate reader (BioTek Synergy 2; 485/20 excitation, 528/20 emission) and OD600 was measured by microplate reader. OD should decrease in germinated cells (the index of refraction decreases due to hydration upon spore coat degradation) while bulk fluorescence should increase as the nucleic acid stain progressively penetrates and permeates the cell (Magge et al., 2009). […]

B. megaterium SR7 [3] = assay: Biolog GenIII sole carbon source growth; conditions: Table 11
Method: Plates were incubated at 37° C. on a plate shaker at 200 rpm and assayed for growth using NADH-dependent colorimetric changes measured by OD490 on a microplate reader (BioTek Synergy 2; BioTek; Winooski, Vt.).

B. megaterium SR7 spores [4] = assay: Spore germination in LB under 1 atm CO2; conditions: 100 mM L-alanine-amended LB, unamended cultures grew between 4.5 and 6 hours
Method: The ability to induce spore germination based on literature precedent was tested by inoculating triplicate 10 ml cultures of SR7 spores at OD600 0.01 in LB amended with 100 mM L-alanine, LB subjected to a heat activation (65° C. for 15 minutes) upon inoculation, or unamended LB as a control. Growth was scored by OD600 and LB agar CFU plate counts. In addition, subsamples were heat-killed by exposure to 80° C. for 10 minutes (Setlow, 2006) prior to plating, to ascertain remaining spore concentrations, as heat exposure is lethal to vegetative cells.

B. megaterium SR7 spores [5] = assay: Spore germination and growth under scCO2 with germination inducers
Method: SR7 growth outcomes were investigated under scCO2 headspace (90-100 atm; 37° C.) while shaking at 250 rpm. SR7 spores were inoculated at starting concentrations of ˜3×10^4 spores/ml (unless otherwise specified) in either 50 mM K2HPO4-buffered LB (P-LB) or M9+ media (Table 1). Experiments assaying the effect of germination induction included 100 mM L-alanine and 10 mM L-leucine media amendments and heat treatment upon reactor pressurization (70° C. for 10 minutes). Incubations were conducted in 316 stainless steel vessels and gradually pressurized to supercritical conditions using a CO2/He cylinder, as previously described. SR7 germination was verified by the identification of vegetative cell morphologies using fluorescence microscopy of Syto9-stained cultures. Growth was defined by an increase of at least 10-fold growth in cell counts relative to t0.
In order to ascertain whether L-alanine, L-leucine, and heat treatment induce germination under scCO2 headspace, three replicate experiments were conducted comparing growth for SR7 spores when loaded in media P-LB, P-LBL, P-LBAL, or P-LBA±heat treatment (Table 1; Table 2). Reactors were depressurized and scored for germination and growth by fluorescence microscopy, as previously described.
Cell densities of P-LB and L-PBA incubations from the three experiments (Table 3; Incubations A-C) were subjected to statistical analysis to establish the significance of 100 mM L-alanine on spore growth outcomes. A non-parametric Wilcoxon/Kruskal-Wallis Test was performed on the dataset (JMP® Pro v.12; SAS Cary, N.C.) where growth outcome (growth/no growth) and cell density fold change (relative to t0) were dependent variables and incubation time and inducer presence/absence (±100 mM L-alanine) were independent variables. […]

B. megaterium SR7 spores [6] = assay: Flow cytometry germination assay (Syto16/PI); conditions: PBS amended with 2.5, 25, 250 mM
Method: FCM was employed as a high-throughput germination assay based on Baier et al., (2010). Triplicate cultures of B. megaterium SR7 spores loaded at OD600 0.01 were incubated overnight in PBS and PBS amended with 2.5-250 mM L-alanine, along with cell-free PBS controls. Prior to loading on the flow cytometer (BD FACS Canto II HTS-1; Becton Dickinson; Franklin Lakes, N.J.) cultures were diluted 1/50 in PBS and stained with Syto16® and propidium iodide (PI) in the dark for at least 30 minutes prior to analysis. After spore and media-only samples were used to set forward scatter, side-scatter, Syto16 and PI gates, sample data was collected and analyzed using […]™ software (BD Biosciences; Franklin Lakes, N.Y.).

B. megaterium SR7 spores [7] = assay: Delayed germination induction in PBS under 1 atm CO2 (bulk fluorescence, OD600); conditions: 9.5 hours after delayed induction in PBS; for OD600 Fold Decrease: OD decrease indicative of germination
Method: Sub-sample bulk fluorescence (Syto9®) was measured by microplate reader (BioTek Synergy 2; 485/20 excitation, 528/20 emission) and OD600 was measured by microplate reader. OD should decrease in germinated cells (the index of refraction decreases due to hydration upon spore coat degradation) while bulk fluorescence should increase as the nucleic acid stain progressively penetrates and permeates the cell (Magge et al., 2009). To test for germination after a delayed inducer spike rather than at the moment of inoculation, B. megaterium SR7 spores loaded at OD600 0.01 were incubated overnight in 30 ml of PBS, passaged into PBS amended with L-alanine (25-250 mM) or L-leucine (10-25 mM) and then assayed for germination by bulk fluorescence and OD600 during incubation.

SMILES	Growth (B. megaterium SR7 [1])	Bulk fluorescence relative to PBS only incubated spores (B. megaterium SR7 spores [2]) [fold]	Growth in carbon source Biolog plate, +Metals (B. megaterium SR7 [3]; trace metals-amended plate)	Growth in carbon source Biolog plate, I (B. megaterium SR7 [3]; unamended plate trial I)	Growth in carbon source Biolog plate, II (B. megaterium SR7 [3]; unamended plate trial II)	Time to germination (B. megaterium SR7 spores [4]) [h]	Growth frequency of cultures under scCO2 (B. megaterium SR7 spores [5]; pooled incubations, 18-20 days, unamended reactors 36%) [%]	Growth frequency of cultures under scCO2 (B. megaterium SR7 spores [5]; with heat treatment) [%]	Spores gated as germinated (Syto16/PI fluorescence) (B. megaterium SR7 spores [6]; PBS only 3.7%)	Spores gated as activated (Syto16/PI fluorescence) (B. megaterium SR7 spores [6]; PBS only 22.0%)	Fluorescence Fold Increase (B. megaterium SR7 spores [7]; 25 mM inducer) [fold]	OD600 Fold Decrease (B. megaterium SR7 spores [7]; 25 mM inducer) [fold]	Fluorescence Fold Increase (B. megaterium SR7 spores [7]; 100 mM inducer) [fold]	OD600 Fold Decrease (B. megaterium SR7 spores [7]; 100 mM inducer) [fold]	Fluorescence Fold Increase (B. megaterium SR7 spores [7]; 250 mM inducer) [fold]	OD600 Fold Decrease (B. megaterium SR7 spores [7]; 250 mM inducer) [fold]
O=C[C@H](O)[C@@H](O)[C@H](O)CO [0.4% Xylose, Xylose]	− (no growth below 0.2)	–	–	–	–	–	–	–	–	–	–	–	–	–	–	–
C[C@H](N)C(=O)O [L-alanine]	–	2.4	+	+	+	≤ 4.5	63	50	1.38-31.8%	44-69%	2.1	1.5	1.4	1.2	1.4	1.2
